Experimental data from the supplement of paper PMC13380429.

Columns and labels:
[1] = system: A549-ACE2 infected with SARS-CoV-2; test: cell count relative to DMSO; higher = less toxic; conditions: 24 h
Caco-2 [2] = test: cell viability relative to DMSO; higher = less toxic; conditions: 72 h
Calu-3 [3] = test: as above; conditions: 72 h
HepG2 [4] = test: as above; conditions: 72 h
U2OS [5] = test: as above; conditions: 72 h
Vero E6 [6] = test: as above; conditions: 72 h
[7] = system: A549-ACE2 infected with SARS-CoV-2; test: SARS-CoV-2 infection rate relative to DMSO; higher = more infection; conditions: 24 h
A549-ACE2 [8] = test: phospholipidosis EC50; higher = less potent phospholipidosis inducer
A549-ACE2 [9] = test: drug-induced phospholipidosis relative to tamoxifen; higher = more phospholipidosis
[10] = system: A549-ACE2 infected with SARS-CoV-2; test: morphology score (similarity to uninfected cells); higher = more like uninfected cells; conditions: 24 h
Caco-2 [11] = test: relative viability EC50 (midpoint between 100% and the lowest measured viability); higher = less toxic; conditions: 72 h
Calu-3 [12] = test: as above; conditions: 72 h
HepG2 [13] = test: as above; conditions: 72 h
U2OS [14] = test: as above; conditions: 72 h
Vero E6 [15] = test: as above; conditions: 72 h
Caco-2 [16] = test: drug sensitivity score (DSS) for viability; higher = more toxic; extreme values may be limits of the assay; conditions: 72 h
Calu-3 [17] = test: as above; conditions: 72 h
HepG2 [18] = test: as above; conditions: 72 h
U2OS [19] = test: as above; conditions: 72 h
Vero E6 [20] = test: as above; conditions: 72 h

Cn1cc(C2=C(c3ccc(Cl)cc3Cl)C(=O)NC2=O)c2ccccc21
Conditions | SARS-CoV-2 infection rate [%] | cell count [%] | cell viability [%] | morphology score | phospholipidosis EC50 [µM]
A549-ACE2 [8], 24 h | – | – | – | – | 6.83
A549-ACE2 [8], 48 h | – | – | – | – | 1.87
A549-ACE2 [8], 72 h | – | – | – | – | 3.22
Caco-2 [2], 1 nM | – | – | 105 | – | –
Caco-2 [2], 10 nM | – | – | 99.9 | – | –
Caco-2 [2], 100 nM | – | – | 92.5 | – | –
Caco-2 [2], 1000 nM | – | – | 105 | – | –
Caco-2 [2], 10000 nM | – | – | 93.1 | – | –
Calu-3 [3], 1 nM | – | – | 113 | – | –
Calu-3 [3], 10 nM | – | – | 108 | – | –
Calu-3 [3], 100 nM | – | – | 99.5 | – | –
Calu-3 [3], 1000 nM | – | – | 122 | – | –
Calu-3 [3], 10000 nM | – | – | 103 | – | –
HepG2 [4], 1 nM | – | – | 98.8 | – | –
HepG2 [4], 10 nM | – | – | 95 | – | –
HepG2 [4], 100 nM | – | – | 100 | – | –
HepG2 [4], 1000 nM | – | – | 95.1 | – | –
HepG2 [4], 10000 nM | – | – | 87.2 | – | –
U2OS [5], 1 nM | – | – | 100 | – | –
U2OS [5], 10 nM | – | – | 97.9 | – | –
U2OS [5], 100 nM | – | – | 97.8 | – | –
U2OS [5], 1000 nM | – | – | 100 | – | –
U2OS [5], 10000 nM | – | – | 97.8 | – | –
Vero E6 [6], 1 nM | – | – | 99.1 | – | –
Vero E6 [6], 10 nM | – | – | 98 | – | –
Vero E6 [6], 100 nM | – | – | 98.4 | – | –
Vero E6 [6], 1000 nM | – | – | 96.2 | – | –
Vero E6 [6], 10000 nM | – | – | 99.8 | – | –
[1], 0.3 µM | – | 96 | – | – | –
[1], 3 µM | – | 94 | – | – | –
[1], 10 µM | – | 96 | – | – | –
[1], 30 µM | – | 91 | – | – | –
[7], 0.3 µM | 109 | – | – | – | –
[7], 3 µM | 101 | – | – | – | –
[7], 10 µM | 90 | – | – | – | –
[7], 30 µM | 91 | – | – | – | –
[10], 0.3 µM | – | – | – | -0.36 | –
[10], 3 µM | – | – | – | -0.27 | –
[10], 10 µM | – | – | – | -0.07 | –
[10], 30 µM | – | – | – | -0.09 | –

drug-induced phospholipidosis [%], A549-ACE2 [9]
Conditions | 0.3 µM | 0.833333 µM | 3.33333 µM | 6.66667 µM | 10 µM | 30 µM
24 h | 3.42 | 26.9 | 57 | 74.1 | 90.2 | 107
48 h | 4.24 | 11.7 | 45.3 | 55.7 | 59.6 | 55.3
72 h | 4.76 | 5.3 | 35.3 | 56 | 56.2 | 54.6

Conditions | drug sensitivity score | relative viability EC50 [µM]
Caco-2 [11] | – | > 10
Caco-2 [16] | 0 | –
Calu-3 [12] | – | > 10
Calu-3 [17] | 0 | –
HepG2 [13] | – | > 10
HepG2 [18] | 0.3 | –
U2OS [14] | – | > 10
U2OS [19] | 0 | –
Vero E6 [15] | – | > 10
Vero E6 [20] | 0 | –

CC(C)c1cnn2c(NCc3ccccc3)cc(NCCCCCCN)nc12 [BS-181]
Conditions | SARS-CoV-2 infection rate [%] | cell count [%] | cell viability [%] | morphology score | phospholipidosis EC50 [µM]
A549-ACE2 [8], 24 h | – | – | – | – | 15
Caco-2 [2], 1 nM | – | – | 101 | – | –
Caco-2 [2], 10 nM | – | – | 84 | – | –
Caco-2 [2], 100 nM | – | – | 122 | – | –
Caco-2 [2], 1000 nM | – | – | 90.2 | – | –
Caco-2 [2], 10000 nM | – | – | 79 | – | –
Calu-3 [3], 1 nM | – | – | 100 | – | –
Calu-3 [3], 10 nM | – | – | 106 | – | –
Calu-3 [3], 100 nM | – | – | 99.9 | – | –
Calu-3 [3], 1000 nM | – | – | 115 | – | –
Calu-3 [3], 10000 nM | – | – | 87.3 | – | –
HepG2 [4], 1 nM | – | – | 97 | – | –
HepG2 [4], 10 nM | – | – | 92 | – | –
HepG2 [4], 100 nM | – | – | 98.1 | – | –
HepG2 [4], 1000 nM | – | – | 90.3 | – | –
HepG2 [4], 10000 nM | – | – | 80 | – | –
U2OS [5], 1 nM | – | – | 102 | – | –
U2OS [5], 10 nM | – | – | 94.8 | – | –
U2OS [5], 100 nM | – | – | 101 | – | –
U2OS [5], 1000 nM | – | – | 96.1 | – | –
U2OS [5], 10000 nM | – | – | 91 | – | –
Vero E6 [6], 1 nM | – | – | 98.5 | – | –
Vero E6 [6], 10 nM | – | – | 97.6 | – | –
Vero E6 [6], 100 nM | – | – | 99 | – | –
Vero E6 [6], 1000 nM | – | – | 94.6 | – | –
Vero E6 [6], 10000 nM | – | – | 86.1 | – | –
[1], 0.3 µM | – | 102 | – | – | –
[1], 3 µM | – | 115 | – | – | –
[1], 10 µM | – | 101 | – | – | –
[1], 30 µM | – | 47 | – | – | –
[7], 0.3 µM | 99 | – | – | – | –
[7], 3 µM | 37 | – | – | – | –
[7], 10 µM | 9 | – | – | – | –
[7], 30 µM | 25 | – | – | – | –
[10], 0.3 µM | – | – | – | 0.12 | –
[10], 3 µM | – | – | – | 0.87 | –
[10], 10 µM | – | – | – | 0.93 | –
[10], 30 µM | – | – | – | 0.26 | –

drug-induced phospholipidosis [%], A549-ACE2 [9]
Conditions | 0.3 µM | 0.833333 µM | 3.33333 µM | 6.66667 µM | 10 µM | 30 µM
24 h | 0.84 | 1.04 | 6.25 | 11.9 | 29.1 | 83.9
48 h | 1.54 | 0.53 | 4.06 | 7 | 14.2 | 37.6
72 h | 2.87 | 1.74 | 3.1 | 5.35 | 9.65 | 19.3

Conditions | drug sensitivity score | relative viability EC50 [µM]
Caco-2 [11] | – | > 10
Caco-2 [16] | 1.7 | –
Calu-3 [12] | – | > 10
Calu-3 [17] | 0 | –
HepG2 [13] | – | > 10
HepG2 [18] | 0.9 | –
U2OS [14] | – | > 10
U2OS [19] | 0 | –
Vero E6 [15] | – | > 10
Vero E6 [20] | 0.4 | –
